# In patent US8653041B2, “Antibacterial aminoglycoside analogs” (Achaogen, Inc., priority 2010, dated 2014):
# What was measured:
# Pseudomonas aeruginosa = experiment: MIC, CLSI broth microdilution, Pseudomonas aeruginosa panel; assay type: cell-based
# Procedure: (§1) Minimum inhibitory concentrations (MIC) were determined by reference Clinical and Laboratory Standards Institute (CLSI) broth microdilution methods per M7-A7 [2006]. Quality control ranges utilizing E. coli ATCC 25922, P. aeruginosa ATCC 27853 and S. aureus ATCC 29213, and interpretive criteria for comparator agents were as published in CLSI M100-S17 [2007]. Briefly, serial two-fold dilutions of the test compounds were prepared at 2× concentration in Mueller Hinton Broth. The compound dilutions were mixed in 96-well assay plates in a 1:1 ratio with bacterial inoculum. The inoculum was prepared by suspension of a colony from an agar plate that was prepared the previous day. Bacteria were suspended in sterile saline and added to each assay plate to obtain a final concentration of 5×10^5 CFU/mL. The plates were incubated at 35 C for 20 hours in ambient air.
# The MIC panel presented in Table 1 contains 27 isolates of Pseudomonas aeruginosa: strains 1-22 are clinical isolates from around the world collected between 2004-2007 which contain representative resistance mechanisms commonly found in Pseudomonas, such as the AAC(6′)-I, AAC(6′)-II, APH(3′)-IIb, ANT(2″)-I, and perm/efflux; strains 23-27 are susceptible.
# Acinetobacter baumannii = experiment: MIC, CLSI broth microdilution, Acinetobacter baumannii panel; assay type: cell-based
# Procedure: as §1
# The MIC panel presented in Table 2 contains 29 isolates of Acinetobacter baumannii: strains 1-24 are clinical isolates from around the world collected between 2004-2007 which contain representative resistance mechanisms commonly found in Acinetobacter baumannii, such as AAC(3)-I and II, AAC(6′)-I, ANT(2″)-I, APH(3′)-VI, and perm/efflux; strains 25-29 are susceptible.
# [1] = 14-day rat toxicology (nephrotoxicity), once-daily subcutaneous injection; settings: once daily, 14 days, Sprague-Dawley rat
# Procedure: The study design utilized once-daily subcutaneous injection administration to the rat for 14 days and assessment of reversibility of any changes following a 28-day recovery period.
# The dose volume administered to each animal was 1 mL/kg.
substance,measurement,setting,value
gentamicin,MIC,Pseudomonas aeruginosa; P. aeruginosa clinical strain 1 (resistant clinical isolate),D (MIC's greater than or equal to 16.0 μg/mL and lower than 32 μg/mL = D)
same,MIC,Pseudomonas aeruginosa; P. aeruginosa clinical strain 2 (resistant clinical isolate),E (MIC's greater than or equal to 32.0 μg/mL = E)
same,MIC,Pseudomonas aeruginosa; P. aeruginosa clinical strain 3 (resistant clinical isolate),E (MIC's greater than or equal to 32.0 μg/mL = E)
same,MIC,Pseudomonas aeruginosa; P. aeruginosa clinical strain 4 (resistant clinical isolate),E (MIC's greater than or equal to 32.0 μg/mL = E)
same,MIC,Pseudomonas aeruginosa; P. aeruginosa clinical strain 5 (resistant clinical isolate),E (MIC's greater than or equal to 32.0 μg/mL = E)
same,MIC,Pseudomonas aeruginosa; P. aeruginosa clinical strain 6 (resistant clinical isolate),E (MIC's greater than or equal to 32.0 μg/mL = E)
same,MIC,Pseudomonas aeruginosa; P. aeruginosa clinical strain 7 (resistant clinical isolate),E (MIC's greater than or equal to 32.0 μg/mL = E)
same,MIC,Pseudomonas aeruginosa; P. aeruginosa clinical strain 8 (resistant clinical isolate),E (MIC's greater than or equal to 32.0 μg/mL = E)
same,MIC,Pseudomonas aeruginosa; P. aeruginosa clinical strain 9 (resistant clinical isolate),E (MIC's greater than or equal to 32.0 μg/mL = E)
same,MIC,Pseudomonas aeruginosa; P. aeruginosa clinical strain 10 (resistant clinical isolate),E (MIC's greater than or equal to 32.0 μg/mL = E)
same,MIC,Pseudomonas aeruginosa; P. aeruginosa clinical strain 11 (resistant clinical isolate),D (MIC's greater than or equal to 16.0 μg/mL and lower than 32 μg/mL = D)
same,MIC,Pseudomonas aeruginosa; P. aeruginosa clinical strain 12 (resistant clinical isolate),E (MIC's greater than or equal to 32.0 μg/mL = E)
same,MIC,Pseudomonas aeruginosa; P. aeruginosa clinical strain 13 (resistant clinical isolate),E (MIC's greater than or equal to 32.0 μg/mL = E)
same,MIC,Pseudomonas aeruginosa; P. aeruginosa clinical strain 14 (resistant clinical isolate),E (MIC's greater than or equal to 32.0 μg/mL = E)
same,MIC,Pseudomonas aeruginosa; P. aeruginosa clinical strain 15 (resistant clinical isolate),E (MIC's greater than or equal to 32.0 μg/mL = E)
same,MIC,Pseudomonas aeruginosa; P. aeruginosa clinical strain 16 (resistant clinical isolate),E (MIC's greater than or equal to 32.0 μg/mL = E)
same,MIC,Pseudomonas aeruginosa; P. aeruginosa clinical strain 17 (resistant clinical isolate),E (MIC's greater than or equal to 32.0 μg/mL = E)
same,MIC,Pseudomonas aeruginosa; P. aeruginosa clinical strain 18 (resistant clinical isolate),E (MIC's greater than or equal to 32.0 μg/mL = E)
same,MIC,Pseudomonas aeruginosa; P. aeruginosa clinical strain 19 (resistant clinical isolate),E (MIC's greater than or equal to 32.0 μg/mL = E)
same,MIC,Pseudomonas aeruginosa; P. aeruginosa clinical strain 20 (resistant clinical isolate),C (MIC's greater than or equal to 8 μg/mL and lower than 16.0 μg/mL = C)
same,MIC,Pseudomonas aeruginosa; P. aeruginosa clinical strain 21 (resistant clinical isolate),C (MIC's greater than or equal to 8 μg/mL and lower than 16.0 μg/mL = C)
same,MIC,Pseudomonas aeruginosa; P. aeruginosa clinical strain 22 (resistant clinical isolate),B (MIC's of greater than 1.0 μg/mL and lower than 8 μg/mL = B)
same,MIC,Pseudomonas aeruginosa; P. aeruginosa strain 23 (susceptible),A (MIC's of 1.0 μg/mL or less = A)
same,MIC,Pseudomonas aeruginosa; P. aeruginosa strain 24 (susceptible),B (MIC's of greater than 1.0 μg/mL and lower than 8 μg/mL = B)
same,MIC,Pseudomonas aeruginosa; P. aeruginosa strain 25 (susceptible),A (MIC's of 1.0 μg/mL or less = A)
same,MIC,Pseudomonas aeruginosa; P. aeruginosa strain 26 (susceptible),A (MIC's of 1.0 μg/mL or less = A)
same,MIC,Pseudomonas aeruginosa; P. aeruginosa strain 27 (susceptible),A (MIC's of 1.0 μg/mL or less = A)
same,MIC,Acinetobacter baumannii; A. baumannii clinical strain 1 (resistant clinical isolate),E (MIC's greater than or equal to 32.0 μg/mL = E)
same,MIC,Acinetobacter baumannii; A. baumannii clinical strain 2 (resistant clinical isolate),E (MIC's greater than or equal to 32.0 μg/mL = E)
same,MIC,Acinetobacter baumannii; A. baumannii clinical strain 3 (resistant clinical isolate),C (MIC's greater than or equal to 8 μg/mL and lower than 16.0 μg/mL = C)
same,MIC,Acinetobacter baumannii; A. baumannii clinical strain 4 (resistant clinical isolate),E (MIC's greater than or equal to 32.0 μg/mL = E)
same,MIC,Acinetobacter baumannii; A. baumannii clinical strain 5 (resistant clinical isolate),E (MIC's greater than or equal to 32.0 μg/mL = E)
same,MIC,Acinetobacter baumannii; A. baumannii clinical strain 6 (resistant clinical isolate),E (MIC's greater than or equal to 32.0 μg/mL = E)
same,MIC,Acinetobacter baumannii; A. baumannii clinical strain 7 (resistant clinical isolate),E (MIC's greater than or equal to 32.0 μg/mL = E)
same,MIC,Acinetobacter baumannii; A. baumannii clinical strain 8 (resistant clinical isolate),E (MIC's greater than or equal to 32.0 μg/mL = E)
same,MIC,Acinetobacter baumannii; A. baumannii clinical strain 9 (resistant clinical isolate),E (MIC's greater than or equal to 32.0 μg/mL = E)
same,MIC,Acinetobacter baumannii; A. baumannii clinical strain 10 (resistant clinical isolate),E (MIC's greater than or equal to 32.0 μg/mL = E)
same,MIC,Acinetobacter baumannii; A. baumannii clinical strain 11 (resistant clinical isolate),E (MIC's greater than or equal to 32.0 μg/mL = E)
same,MIC,Acinetobacter baumannii; A. baumannii clinical strain 12 (resistant clinical isolate),E (MIC's greater than or equal to 32.0 μg/mL = E)
same,MIC,Acinetobacter baumannii; A. baumannii clinical strain 13 (resistant clinical isolate),A (MIC's of 1.0 μg/mL or less = A)
same,MIC,Acinetobacter baumannii; A. baumannii clinical strain 14 (resistant clinical isolate),B (MIC's of greater than 1.0 μg/mL and lower than 8 μg/mL = B)
same,MIC,Acinetobacter baumannii; A. baumannii clinical strain 15 (resistant clinical isolate),A (MIC's of 1.0 μg/mL or less = A)
same,MIC,Acinetobacter baumannii; A. baumannii clinical strain 16 (resistant clinical isolate),B (MIC's of greater than 1.0 μg/mL and lower than 8 μg/mL = B)
same,MIC,Acinetobacter baumannii; A. baumannii clinical strain 17 (resistant clinical isolate),E (MIC's greater than or equal to 32.0 μg/mL = E)
same,MIC,Acinetobacter baumannii; A. baumannii clinical strain 18 (resistant clinical isolate),E (MIC's greater than or equal to 32.0 μg/mL = E)
same,MIC,Acinetobacter baumannii; A. baumannii clinical strain 19 (resistant clinical isolate),B (MIC's of greater than 1.0 μg/mL and lower than 8 μg/mL = B)
same,MIC,Acinetobacter baumannii; A. baumannii clinical strain 20 (resistant clinical isolate),C (MIC's greater than or equal to 8 μg/mL and lower than 16.0 μg/mL = C)
same,MIC,Acinetobacter baumannii; A. baumannii clinical strain 21 (resistant clinical isolate),E (MIC's greater than or equal to 32.0 μg/mL = E)
same,MIC,Acinetobacter baumannii; A. baumannii clinical strain 22 (resistant clinical isolate),E (MIC's greater than or equal to 32.0 μg/mL = E)
same,MIC,Acinetobacter baumannii; A. baumannii clinical strain 23 (resistant clinical isolate),E (MIC's greater than or equal to 32.0 μg/mL = E)
same,MIC,Acinetobacter baumannii; A. baumannii clinical strain 24 (resistant clinical isolate),E (MIC's greater than or equal to 32.0 μg/mL = E)
same,MIC,Acinetobacter baumannii; A. baumannii strain 25 (susceptible),A (MIC's of 1.0 μg/mL or less = A)
same,MIC,Acinetobacter baumannii; A. baumannii strain 26 (susceptible),A (MIC's of 1.0 μg/mL or less = A)
same,MIC,Acinetobacter baumannii; A. baumannii strain 27 (susceptible),A (MIC's of 1.0 μg/mL or less = A)
same,MIC,Acinetobacter baumannii; A. baumannii strain 28 (susceptible),A (MIC's of 1.0 μg/mL or less = A)
same,MIC,Acinetobacter baumannii; A. baumannii strain 29 (susceptible),A (MIC's of 1.0 μg/mL or less = A)
same,mortality and morbidity,[1]; 100 mg/kg/day subcutaneous,resulted in mortality and morbidity at 100 mg/kg/day due to nephrotoxicity
same,macroscopic and microscopic changes in the kidneys,"[1]; all dose levels (10, 30 or 100 mg/kg/day) subcutaneous",observed at all dose levels
